# Test results from patent publication US20100323033A1, “CANCER SENSITIZER COMPRISING CHLOROGENIC ACID” (priority 2007, published 2010).
# Tested on: Human pancreatic carcinoma cell line AsPC-1 (doxorubicin resistant)
# Test: XTT assay of anticancer agent sensitivity in doxorubicin-resistant AsPC-1 cells
# Type: cell-based
# Settings: 48 hrs, FIG. 1
# Procedure: Human pancreatic carcinoma cell line AsPC-1 (doxorubicin resistant) was purchased from ATCC (American Type Culture Collection, Manassas, Va., USA). AsPC-1 cell lines were maintained in media supplemented with 10% fetal bovine serum (Gibco BRL) at 37° C. in a humid 5% CO2 atmosphere, and subcultured every two or three days. XTT assay was conducted to examine whether chlorogenic acid increases the anticancer agent sensitivity. A modified MTT assay, XTT assay is a colorimetric method that determines the relative number of living cells, after treating cells with a compound degraded by a specific enzyme. AsPC-1 cells were seeded in 96-well plates (2×10^4 per well), and cultured for 24 hrs. The cells were treated with 0, 5, and 10 μM of doxorubicin, and 0, 5, 10, and […] of chlorogenic acid, and incubated for 48 hrs. 0.1 ml of active solution and 5 ml of XTT (2,3-Bis{2-methoxy-4-nitro-5[(sulfenylamino) carbonyl]-2H-tetrazolium-hydroxide}) were added to the 96-well plates, and 50 μl of reaction solution was added to each well, followed by incubation for 2 hrs. The plates were gently shaken for staining, and the absorbance was measured at 450 nm using a VERSAmax220 Automatic Microplate Reader (Molecular Devices Corp.).
smiles,measurement,setting,value
"O=C(/C=C/c1ccc(O)c(O)c1)O[C@@H]1C[C@](O)(C(=O)O)C[C@@H](O)[C@H]1O [chlorogenic acid, 3-[[3-(3,4-dihydroxyphenyl)-1-oxo-2-propenyl]oxy]-1,4,5-trihydroxycyclohexanecarboxylic acid]",dependence of cancer cell viability on chlorogenic acid concentration,combination with doxorubicin,"decreased, as the concentration of chlorogenic acid was increased"
same,"decrease of viability of cancer cells with chlorogenic acid plus anticancer agent, compared to anticancer agent alone","doxorubicin 0, 5, 10 μM with chlorogenic acid 0, 5, 10, 20μ, absorbance 450 nm",30%
